Test results: the supplement of paper PMC11424490
Structures can show the parent of a compound that is named as a salt.

Key:
SW837 = test: combination cScore with adagrasib (Bliss gap around IC50) (%PoC); higher = stronger additive effect
Description: (§1)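 Combination screen of 179 inhibitors with the KRAS G12C inhibitor adagrasib (MRTX849) in dose matrices, CellTiter-Glo readout in NCI-H2122 (72 h), SW837 (144 h) and NCI-H358 cells. The cScore is the mean Bliss-independence gap (expected minus observed viability, in %PoC) over a 3x3 field around the IC50s of both drugs. Positive means additive, and >~10 is stated as clear additive.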

NCI-H2122 = test: as above
Description: as §1

Cc1ccc(NC(=O)c2ccc(CN3CCN(C)CC3)cc2)cc1Nc1nccc(-c2cccnc2)n1 [Imatinib] + C=C(F)C(=O)N1CCN(c2nc(OC[C@@H]3CCCN3C)nc3c2CCN(c2cccc4cccc(Cl)c24)C3)C[C@@H]1CC#N [adagrasib]
combination cScore with adagrasib (SW837): -2.11
combination cScore with adagrasib (NCI-H2122): -0.92

O=C(CCCCCCC(=O)Nc1ccccc1)NO [Vorinostat] + C=C(F)C(=O)N1CCN(c2nc(OC[C@@H]3CCCN3C)nc3c2CCN(c2cccc4cccc(Cl)c24)C3)C[C@@H]1CC#N [adagrasib]
combination cScore with adagrasib (SW837): 14.9
combination cScore with adagrasib (NCI-H2122): 1.67

c1ccc(-c2nn3c(c2-c2ccnc4cc(OCCN5CCOCC5)ccc24)CCC3)nc1 + C=C(F)C(=O)N1CCN(c2nc(OC[C@@H]3CCCN3C)nc3c2CCN(c2cccc4cccc(Cl)c24)C3)C[C@@H]1CC#N [adagrasib]
combination cScore with adagrasib (SW837): 0.67
combination cScore with adagrasib (NCI-H2122): -21.2

CCC1=C[C@@H]2CN(C1)Cc1c([nH]c3ccccc13)[C@@](C(=O)OC)(c1cc3c(cc1OC)N(C)[C@H]1[C@@](O)(C(=O)OC)[C@H](OC(C)=O)[C@]4(CC)C=CCN5CC[C@]31[C@@H]54)C2 [Vinorelbine] + C=C(F)C(=O)N1CCN(c2nc(OC[C@@H]3CCCN3C)nc3c2CCN(c2cccc4cccc(Cl)c24)C3)C[C@@H]1CC#N [adagrasib]
combination cScore with adagrasib (SW837): 3.93
combination cScore with adagrasib (NCI-H2122): -8.58

Cc1cn(-c2cc(NC(=O)c3ccc(C)c(Nc4nccc(-c5cccnc5)n4)c3)cc(C(F)(F)F)c2)cn1 [Nilotinib] + C=C(F)C(=O)N1CCN(c2nc(OC[C@@H]3CCCN3C)nc3c2CCN(c2cccc4cccc(Cl)c24)C3)C[C@@H]1CC#N [adagrasib]
combination cScore with adagrasib (SW837): 9.6
combination cScore with adagrasib (NCI-H2122): 10.6

CCCC(CCC)C(=O)O [Valproic acid] + C=C(F)C(=O)N1CCN(c2nc(OC[C@@H]3CCCN3C)nc3c2CCN(c2cccc4cccc(Cl)c24)C3)C[C@@H]1CC#N [adagrasib]
combination cScore with adagrasib (SW837): 2.04
combination cScore with adagrasib (NCI-H2122): -2.93

Cc1ccc(NC(=O)c2ccnc(C(F)(F)F)c2)cc1-c1cc(OCCO)nc(N2CCOCC2)c1 [LXH-254] + C=C(F)C(=O)N1CCN(c2nc(OC[C@@H]3CCCN3C)nc3c2CCN(c2cccc4cccc(Cl)c24)C3)C[C@@H]1CC#N [adagrasib]
combination cScore with adagrasib (SW837): 0.67
combination cScore with adagrasib (NCI-H2122): -3.51

O=C(O)C1(C(=O)O)CCC1.[NH2-].[NH2-].[Pt+2] [Carboplatin] + C=C(F)C(=O)N1CCN(c2nc(OC[C@@H]3CCCN3C)nc3c2CCN(c2cccc4cccc(Cl)c24)C3)C[C@@H]1CC#N [adagrasib]
combination cScore with adagrasib (SW837): -6.32
combination cScore with adagrasib (NCI-H2122): -1.99

CC[C@H](C)C(=O)O[C@H]1C[C@@H](C)C=C2C=C[C@H](C)[C@H](CC[C@@H]3C[C@@H](O)CC(=O)O3)[C@H]21 [Lovastatin] + C=C(F)C(=O)N1CCN(c2nc(OC[C@@H]3CCCN3C)nc3c2CCN(c2cccc4cccc(Cl)c24)C3)C[C@@H]1CC#N [adagrasib]
combination cScore with adagrasib (SW837): 1.03
combination cScore with adagrasib (NCI-H2122): -4.64

COc1cc([C@@H]2c3cc4c(cc3[C@@H](O[C@@H]3O[C@@H]5CO[C@@H](C)O[C@H]5[C@H](O)[C@H]3O)[C@H]3COC(=O)[C@H]23)OCO4)cc(OC)c1O [Etoposide] + C=C(F)C(=O)N1CCN(c2nc(OC[C@@H]3CCCN3C)nc3c2CCN(c2cccc4cccc(Cl)c24)C3)C[C@@H]1CC#N [adagrasib]
combination cScore with adagrasib (SW837): -0.11
combination cScore with adagrasib (NCI-H2122): 2.33

CNC(=O)c1cc(Oc2ccc(NC(=O)Nc3ccc(Cl)c(C(F)(F)F)c3)c(F)c2)ccn1 [Regorafenib] + C=C(F)C(=O)N1CCN(c2nc(OC[C@@H]3CCCN3C)nc3c2CCN(c2cccc4cccc(Cl)c24)C3)C[C@@H]1CC#N [adagrasib]
combination cScore with adagrasib (SW837): -1.71
combination cScore with adagrasib (NCI-H2122): -3.41

Nc1nc(Nc2ccc3c(c2)CC[C@@H](N2CCCC2)CC3)nn1-c1cc2c(nn1)-c1ccccc1CCC2 [Bemcentinib] + C=C(F)C(=O)N1CCN(c2nc(OC[C@@H]3CCCN3C)nc3c2CCN(c2cccc4cccc(Cl)c24)C3)C[C@@H]1CC#N [adagrasib]
combination cScore with adagrasib (SW837): -0.26
combination cScore with adagrasib (NCI-H2122): -0.08

Nc1ccn([C@@H]2O[C@H](CO)[C@@H](O)C2(F)F)c(=O)n1 [Gemcitabine] + C=C(F)C(=O)N1CCN(c2nc(OC[C@@H]3CCCN3C)nc3c2CCN(c2cccc4cccc(Cl)c24)C3)C[C@@H]1CC#N [adagrasib]
combination cScore with adagrasib (SW837): -2.8
combination cScore with adagrasib (NCI-H2122): -4.78

CC(O)(CS(=O)(=O)c1ccc(F)cc1)C(=O)Nc1ccc(C#N)c(C(F)(F)F)c1 (stereo not drawn) [Bicalutamide] + C=C(F)C(=O)N1CCN(c2nc(OC[C@@H]3CCCN3C)nc3c2CCN(c2cccc4cccc(Cl)c24)C3)C[C@@H]1CC#N [adagrasib]
combination cScore with adagrasib (SW837): 2.23
combination cScore with adagrasib (NCI-H2122): 4.44

Nc1nc2[nH]cc(CCc3ccc(C(=O)N[C@@H](CCC(=O)O)C(=O)O)cc3)c2c(=O)[nH]1 [Pemetrexed] + C=C(F)C(=O)N1CCN(c2nc(OC[C@@H]3CCCN3C)nc3c2CCN(c2cccc4cccc(Cl)c24)C3)C[C@@H]1CC#N [adagrasib]
combination cScore with adagrasib (SW837): 5.08
combination cScore with adagrasib (NCI-H2122): 2.77

CNC(=O)c1cc(Oc2ccc(NC(=O)Nc3ccc(Cl)c(C(F)(F)F)c3)cc2)ccn1 [Sorafenib] + C=C(F)C(=O)N1CCN(c2nc(OC[C@@H]3CCCN3C)nc3c2CCN(c2cccc4cccc(Cl)c24)C3)C[C@@H]1CC#N [adagrasib]
combination cScore with adagrasib (SW837): -4.84
combination cScore with adagrasib (NCI-H2122): -6.98

CNCc1ccc(-c2cc(-c3nc(-c4ccc(S(=O)(=O)C(C)C)cc4)cnc3N)on2)cc1 [VE-822/VX-970] + C=C(F)C(=O)N1CCN(c2nc(OC[C@@H]3CCCN3C)nc3c2CCN(c2cccc4cccc(Cl)c24)C3)C[C@@H]1CC#N [adagrasib]
combination cScore with adagrasib (SW837): -9.66
combination cScore with adagrasib (NCI-H2122): 3.08

CC(C)Nc1cc(-c2c[nH]c(C(=O)N[C@H](CO)c3cccc(Cl)c3)c2)c(Cl)cn1 [Ulixertinib] + C=C(F)C(=O)N1CCN(c2nc(OC[C@@H]3CCCN3C)nc3c2CCN(c2cccc4cccc(Cl)c24)C3)C[C@@H]1CC#N [adagrasib]
combination cScore with adagrasib (SW837): 2.22
combination cScore with adagrasib (NCI-H2122): -12.2

C[C@@H]1CCN(C(=O)CC#N)C[C@@H]1N(C)c1ncnc2[nH]ccc12 [Tofacitinib citrate] + C=C(F)C(=O)N1CCN(c2nc(OC[C@@H]3CCCN3C)nc3c2CCN(c2cccc4cccc(Cl)c24)C3)C[C@@H]1CC#N [adagrasib]
combination cScore with adagrasib (SW837): 5.3
combination cScore with adagrasib (NCI-H2122): -3.58

O=c1cc(N2CCOCC2)oc2c(-c3cccc4c3sc3ccccc34)cccc12 [NU-7441] + C=C(F)C(=O)N1CCN(c2nc(OC[C@@H]3CCCN3C)nc3c2CCN(c2cccc4cccc(Cl)c24)C3)C[C@@H]1CC#N [adagrasib]
combination cScore with adagrasib (SW837): 11.6
combination cScore with adagrasib (NCI-H2122): 6.81

CC1(C)CCC(CN2CCN(c3ccc(C(=O)NS(=O)(=O)c4ccc(NCC5CCOCC5)c([N+](=O)[O-])c4)c(Oc4cnc5[nH]ccc5c4)c3)CC2)=C(c2ccc(Cl)cc2)C1 [ABT-199] + C=C(F)C(=O)N1CCN(c2nc(OC[C@@H]3CCCN3C)nc3c2CCN(c2cccc4cccc(Cl)c24)C3)C[C@@H]1CC#N [adagrasib]
combination cScore with adagrasib (SW837): -3.71
combination cScore with adagrasib (NCI-H2122): 3.14

Nc1ncn([C@@H]2O[C@H](CO)[C@@H](O)[C@H]2O)c(=O)n1 [Azacitidine] + C=C(F)C(=O)N1CCN(c2nc(OC[C@@H]3CCCN3C)nc3c2CCN(c2cccc4cccc(Cl)c24)C3)C[C@@H]1CC#N [adagrasib]
combination cScore with adagrasib (SW837): 9.12
combination cScore with adagrasib (NCI-H2122): -1.39

C[C@]12CC[C@@H]3c4ccc(O)cc4C[C@@H](CCCCCCCCC[S+]([O-])CCCC(F)(F)C(F)(F)F)[C@H]3[C@@H]1CC[C@@H]2O (stereo partly drawn) [Fulvestrant] + C=C(F)C(=O)N1CCN(c2nc(OC[C@@H]3CCCN3C)nc3c2CCN(c2cccc4cccc(Cl)c24)C3)C[C@@H]1CC#N [adagrasib]
combination cScore with adagrasib (SW837): 2.82
combination cScore with adagrasib (NCI-H2122): 3.46

Cc1[nH]c2ccccc2c1CCNCc1ccc(/C=C/C(=O)NO)cc1 [Panobinostat] + C=C(F)C(=O)N1CCN(c2nc(OC[C@@H]3CCCN3C)nc3c2CCN(c2cccc4cccc(Cl)c24)C3)C[C@@H]1CC#N [adagrasib]
combination cScore with adagrasib (SW837): 5.72
combination cScore with adagrasib (NCI-H2122): 2.38

CN(C)c1ccccc1CN1CCCN(Cc2ccccc2N(C)C)C1c1ccncc1 [GANT61] + C=C(F)C(=O)N1CCN(c2nc(OC[C@@H]3CCCN3C)nc3c2CCN(c2cccc4cccc(Cl)c24)C3)C[C@@H]1CC#N [adagrasib]
combination cScore with adagrasib (SW837): -0.37
combination cScore with adagrasib (NCI-H2122): 7.28

COc1ccc(Cn2ccc3ccc(C(=O)NO)cc32)cc1 + C=C(F)C(=O)N1CCN(c2nc(OC[C@@H]3CCCN3C)nc3c2CCN(c2cccc4cccc(Cl)c24)C3)C[C@@H]1CC#N [adagrasib]
combination cScore with adagrasib (SW837): 1.45
combination cScore with adagrasib (NCI-H2122): 2.01

Cn1c(=O)n(-c2ccc(C(C)(C)C#N)cc2)c2c3cc(-c4cnc5ccccc5c4)ccc3ncc21 [NVP-BEZ235] + C=C(F)C(=O)N1CCN(c2nc(OC[C@@H]3CCCN3C)nc3c2CCN(c2cccc4cccc(Cl)c24)C3)C[C@@H]1CC#N [adagrasib]
combination cScore with adagrasib (SW837): 6.19
combination cScore with adagrasib (NCI-H2122): 3.55

COc1ccc2nc3ccc(OC)cc3c(SCCCN)c2c1 + C=C(F)C(=O)N1CCN(c2nc(OC[C@@H]3CCCN3C)nc3c2CCN(c2cccc4cccc(Cl)c24)C3)C[C@@H]1CC#N [adagrasib]
combination cScore with adagrasib (SW837): -2.24
combination cScore with adagrasib (NCI-H2122): 7.77

CC(C)(C)c1nc(-c2cccc(NS(=O)(=O)c3c(F)cccc3F)c2F)c(-c2ccnc(N)n2)s1 [Dabrafenib] + C=C(F)C(=O)N1CCN(c2nc(OC[C@@H]3CCCN3C)nc3c2CCN(c2cccc4cccc(Cl)c24)C3)C[C@@H]1CC#N [adagrasib]
combination cScore with adagrasib (SW837): -0.35
combination cScore with adagrasib (NCI-H2122): -9.32
